Measured values taken from patent US11391740B2, “Methods and materials for identifying and treating cancer” (Mayo Foundation for Medical Education and Research, priority 2019, dated 2022).

What was measured:
[1] = tested on: C4-2ENZ-R cells; assay: SRB cell proliferation assay in enzalutamide-resistant C4-2 cells; format: cell-based, human; details: for sensitivity of C4-2ENZ-R cells compared with C4-2CON cells by half maximal inhibitory concentration (IC50): C4-2ENZ-R vs C4-2CON, 4 days, FIGS. 5A-5C
Method: FIGS. 5A-5D: Dual inhibition of BET and CBP/p300 overcomes ENZ-resistance in ARPCa. A: Heatmap showing the sensitivity of control (C4-2CON) and enzalutamide-resistant C4-2 cells (C4-2ENZ-R) to various inhibitor. B-C: C4-2CON and C4-2ENZ-R cells were treated with the indicated concentrations of BET inhibitor (JQ1) and CBP/p300 inhibitor (CPI637) for 4 days, the cell proliferation was measured by SRB assay, and the 96 well plates were imaged. Data are represented as means±s.d., n=4. Statistical significance was determined by two-way ANOVA. D: C4-2ENZ-R cells were treated with the indicated concentrations of ENZ, JQ1, CPI637, or a combination of JQ1 and CPI-637, and cell proliferation was measured by a SRB assay. Data are represented as means±s.d., n=6. Statistical significance was determined by two-way ANOVA.
FIGS. 7A-7E. Full-length AR, but not AR variants, drives ENZ-resistant cell proliferation. A: C4-2CON and C4-2ENZ-R cells were treated with the indicated concentrations of ENZ, and cell proliferation was measured by SRB assay. Data are represented as means±s.d., n=6. Statistical significance was determined by two-way ANOVA. B: Heatmap showing RNA-seq read intensity of the canonical AR signature genes in C4-2CON and C4-2ENZ-R cells. C: RT-qPCR showing the mRNA level of KLK3 in C4-2CON and C4-2ENZ-R cells. Data are represented as means±s.d., n=3. Statistical significance was determined by unpaired two-tailed Student's t tests. D: Western blot analysis showing the expression of full-length (FL) AR and AR variants (Vs) in C4-2CON and C4-2ENZ-R cells. ERK2 was used as a loading control. E: UCSC genome browser tracks showing RNA-seq signals of AR and AR variants in C4-2CON and C4-2ENZ-R cells.
LNCaP, VCaP, LAPC4 PCa, and 293T cell lines were purchased from ATCC. […]
293T cells were co-transfected with control shRNA or shRNA specific for human AR, CXXC5, TET2, ID1, ID3 and PFN2. […] Cells were fixed at different time points (day 0-5) and cell growth was measured using a sulforhodamine B (SRB) assay (He et al., Nature Commun., 7:13122 (2016)).

[2] = tested on: ENZ-resistant PDXs; assay: ENZ-resistant patient-derived xenograft (PDX) tumor growth in mice; format: in vivo; details: castrated male mice; ENZ 10 mg/kg, CPI637 10 mg/kg, JQ1 50 mg/kg, oral gavage 5 days per week
[3] = tested on: C4-2ENZ-R xenografts; assay: C4-2ENZ-R xenograft tumor growth in SCID mice; format: in vivo; details: ENZ 10 mg/kg per day, 28 days, FIGS. 1A, 1B
Method: FIGS. 1A-1G. Genome-wide profiling of AR chromatin binding in ENZ-resistant PCa cells. A: Effect of ENZ treatment on growth of C4-2CON and C4-2ENZ-R xenografts in mice. C4-2ENZ-R and C4-2CON cells suspended in 0.1 mL matrigel were injected into the right flank of 6-week old male SCID mice. After the volume of tumor nodules reached about 100 mm^3, mice were randomly assigned within control and ENZ-resistant groups and were treated with ENZ at 10 mg/kg or vehicle per day and tumor volume was measured every 4 days. B: After 28 days of treatment, tumors were isolated from mice in each group and photographed. Data are represented as means±s.d., n=8. Statistical significance was determined by two-way ANOVA. […] D: AR was knocked down by specific shRNAs in C4-2CON and C4-2ENZ-R cells, and cell proliferation was measured by SRB assay. […] Statistical significance was determined by two-way ANOVA. E: Venn diagram showing AR chromatin binding peaks in C4-2CON and C4-2ENZ-R cells detected by ChIP-seq. F: Heatmaps showing ChIP-seq read intensity of AR, H3K27ac, and FOXA1 in C4-2CON and C4-2ENZ-R cells. […]
FIGS. 6A-6G. […] Representative images (scale bar, 50 μm), and quantified data are show in (a) and (b), respectively. […] Tumor size was measured every 4 days (d). After 28 days of treatment, tumors isolated from mice were photographed (e), and tumor weight was measured (f). […]

[4] = tested on: CRPC PDX; assay: CRPC patient-derived xenograft (PDX) tumor growth in mice; format: in vivo; details: ENZ 10 mg/kg daily, 32 days
Text: FIG. 11A-D. Upregulation of CXXC5 and ID1 in AFI-resistant PCa patients. A: H&E staining and IHC for AR, CXXC5, and ID1 in hormone naïve, CRPC and ENZ-resistant PC patient specimens. Scale bar, 200 μm. B: H&E staining and IHC for AR, CXXC5, and ID1 in ABI-resistant ARPC patient specimens. Scale bar, 200 m (low magnification); 50 m (high magnification). C-D: Comparison of ENZ response in CRPC and ENZ-resistant PDXs. CRPC and ENZ-resistant PDXs were planted into the right flank of 6 week-old male SCID mice. After the tumor volume reached about 100 mm^3, mice were randomly assigned within each tumor group and treated with 10 mg/kg of […] daily. Tumor size was measured every 4 days (C). After 32 days of treatment, tumors were isolated and photographed (D). Data are represented as means±s.d., n=8. Statistical significance was determined by two-way ANOVA.
NOD-SCID male mice were generated in house and used for animal experiments. All mice were housed under standard conditions with a 12 hour light/dark cycle and access to food and water ad libitum and maintained under pathogen-free conditions. […] Mice were treated 5 days per week by oral gavage and tumor growth was measured in a blinded fashion using digital calipers. The tumor volume was calculated using the following equation: tumor volume=length×width×width×0.5.

SMILES | sensitivity of C4-2ENZ-R cells compared with C4-2CON cells by half maximal inhibitory concentration (IC50) [1] | response of ENZ-resistant PDXs to treatment [2] | growth of C4-2ENZ-R cells under ENZ treatment in vitro ([1]; in vitro, FIG. 7A) | growth of C4-2ENZ-R xenografts under ENZ treatment in vivo [3] | response of CRPC PDX to treatment [4]
C[C@@H]1CC(=O)Nc2cccc(-c3ccc4c(c3)c(-c3cnn(C)c3)nn4C)c2N1 [CPI637] | much more sensitive | responded | – | – | –
CNC(=O)c1ccc(N2C(=S)N(c3ccc(C#N)c(C(F)(F)F)c3)C(=O)C2(C)C)cc1F [ENZ, enzalutamide] | – | – | resistant to ENZ treatment | resistant to ENZ treatment | still responded
Cc1sc2c(c1C)C(c1ccc(Cl)cc1)=N[C@@H](CC(=O)OC(C)(C)C)c1nnc(C)n1-2 [JQ1] | much more sensitive | responded | – | – | –
